Columns and labels:
[1] = target: Serine/threonine-protein kinase PRP4 homolog (Homo sapiens) (UniProt Q13523); test: Selectivity interaction (Kinase panel (KiNativ target engagement assay in Jurkat cells)) EUB0001635a PRPF4; format: cell-based; details: Selectivity number of off-targets 0.0, Selectivity number of targets 233.0, Source Knowledge https://www.sciencedirect.com/science/article/pii/S2451945619300674?via%3Dihub, at 1 µM
[2] = target: T1, Serine/threonine-protein kinase DCLK3 (Homo sapiens) (UniProt Q9C098); test: Selectivity interaction (KinomeScan (DiscoverX)) EUB0000595a DCLK3; details: at 10 µM
T1 sequence (whole entry): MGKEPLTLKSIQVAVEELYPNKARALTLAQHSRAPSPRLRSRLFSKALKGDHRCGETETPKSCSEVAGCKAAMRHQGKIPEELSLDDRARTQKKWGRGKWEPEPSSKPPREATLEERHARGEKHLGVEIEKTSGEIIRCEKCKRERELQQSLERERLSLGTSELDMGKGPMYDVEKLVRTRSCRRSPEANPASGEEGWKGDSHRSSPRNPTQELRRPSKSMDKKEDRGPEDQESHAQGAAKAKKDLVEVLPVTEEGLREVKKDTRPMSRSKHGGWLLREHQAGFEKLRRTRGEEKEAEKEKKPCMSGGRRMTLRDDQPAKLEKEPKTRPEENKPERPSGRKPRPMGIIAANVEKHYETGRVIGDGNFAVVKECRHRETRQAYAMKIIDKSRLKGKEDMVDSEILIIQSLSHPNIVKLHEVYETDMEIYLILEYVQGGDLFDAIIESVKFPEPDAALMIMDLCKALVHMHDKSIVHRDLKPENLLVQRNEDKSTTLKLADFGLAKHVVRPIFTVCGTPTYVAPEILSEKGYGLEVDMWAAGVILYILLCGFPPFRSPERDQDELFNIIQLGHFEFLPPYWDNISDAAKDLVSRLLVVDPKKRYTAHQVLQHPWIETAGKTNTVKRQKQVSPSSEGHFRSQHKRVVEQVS

[3] = target: Mitogen-activated protein kinase 7 (Homo sapiens) (UniProt Q13164); test: Selectivity interaction (KinomeScan (DiscoverX)) EUB0000045b MAPK7
Sequence of Mitogen-activated protein kinase 7 (Homo sapiens) (Q13164 2-816 limits assumed): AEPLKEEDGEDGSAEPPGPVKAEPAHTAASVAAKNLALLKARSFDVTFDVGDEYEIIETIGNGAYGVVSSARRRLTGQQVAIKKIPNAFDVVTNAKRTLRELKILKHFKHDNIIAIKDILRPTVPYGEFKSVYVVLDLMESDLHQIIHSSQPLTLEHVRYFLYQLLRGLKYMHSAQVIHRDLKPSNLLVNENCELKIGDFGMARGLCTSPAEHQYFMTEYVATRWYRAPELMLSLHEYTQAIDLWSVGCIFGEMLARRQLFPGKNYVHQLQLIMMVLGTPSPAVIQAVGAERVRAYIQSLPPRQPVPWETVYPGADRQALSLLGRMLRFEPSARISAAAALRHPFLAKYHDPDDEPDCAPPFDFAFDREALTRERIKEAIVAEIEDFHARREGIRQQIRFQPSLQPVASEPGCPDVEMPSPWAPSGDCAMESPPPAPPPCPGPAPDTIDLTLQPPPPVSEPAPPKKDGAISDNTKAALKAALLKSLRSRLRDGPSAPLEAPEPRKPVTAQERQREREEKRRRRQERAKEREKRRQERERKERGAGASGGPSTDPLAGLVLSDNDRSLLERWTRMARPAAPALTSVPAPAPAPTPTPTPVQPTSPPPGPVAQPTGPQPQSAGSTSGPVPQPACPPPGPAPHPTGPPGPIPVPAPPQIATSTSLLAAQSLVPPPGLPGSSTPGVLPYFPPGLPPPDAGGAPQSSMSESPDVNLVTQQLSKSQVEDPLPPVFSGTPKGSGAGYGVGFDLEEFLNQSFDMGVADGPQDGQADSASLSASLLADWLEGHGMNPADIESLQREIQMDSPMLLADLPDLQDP

[4] = target: Ribosomal protein S6 kinase alpha-2 (Homo sapiens) (UniProt Q15349); test: Selectivity interaction (KinomeScan (DiscoverX)) EUB0000695a RPS6KA2; details: at 100 nM
Sequence of Ribosomal protein S6 kinase alpha-2 (Homo sapiens) (Q15349 whole entry): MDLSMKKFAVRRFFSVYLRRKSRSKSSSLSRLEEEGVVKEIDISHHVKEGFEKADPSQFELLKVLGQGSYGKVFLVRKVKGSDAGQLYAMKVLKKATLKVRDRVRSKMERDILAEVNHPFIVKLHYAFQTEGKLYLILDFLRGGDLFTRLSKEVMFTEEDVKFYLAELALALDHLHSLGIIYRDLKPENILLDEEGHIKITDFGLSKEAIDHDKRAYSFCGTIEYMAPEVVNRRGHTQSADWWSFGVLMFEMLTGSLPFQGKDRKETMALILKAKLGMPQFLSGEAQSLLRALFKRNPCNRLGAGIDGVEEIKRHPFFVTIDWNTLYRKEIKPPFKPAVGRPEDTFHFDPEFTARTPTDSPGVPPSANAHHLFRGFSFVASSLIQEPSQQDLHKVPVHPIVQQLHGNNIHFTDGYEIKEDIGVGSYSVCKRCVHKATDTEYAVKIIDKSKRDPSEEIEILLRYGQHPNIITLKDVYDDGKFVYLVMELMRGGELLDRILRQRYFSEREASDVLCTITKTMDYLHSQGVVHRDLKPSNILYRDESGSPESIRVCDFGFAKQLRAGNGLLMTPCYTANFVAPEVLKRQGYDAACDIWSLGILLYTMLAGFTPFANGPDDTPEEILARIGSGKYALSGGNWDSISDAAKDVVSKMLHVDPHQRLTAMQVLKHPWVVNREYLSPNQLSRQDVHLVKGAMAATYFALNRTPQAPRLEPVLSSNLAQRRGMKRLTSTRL

[5] = target: Wee1-like protein kinase 2 (Homo sapiens) (UniProt P0C1S8); details: at 10 µM
[6] = target: Glucocorticoid receptor (Homo sapiens) (UniProt P04150); test: Selectivity interaction (Panel of non-epigenetic targets (kinases, GPCRs, ion channels, and transporters, Eurofins) ) EUB0000271b NR3C1; details: at 1 µM
Sequence of Glucocorticoid receptor (Homo sapiens) (P04150 whole entry): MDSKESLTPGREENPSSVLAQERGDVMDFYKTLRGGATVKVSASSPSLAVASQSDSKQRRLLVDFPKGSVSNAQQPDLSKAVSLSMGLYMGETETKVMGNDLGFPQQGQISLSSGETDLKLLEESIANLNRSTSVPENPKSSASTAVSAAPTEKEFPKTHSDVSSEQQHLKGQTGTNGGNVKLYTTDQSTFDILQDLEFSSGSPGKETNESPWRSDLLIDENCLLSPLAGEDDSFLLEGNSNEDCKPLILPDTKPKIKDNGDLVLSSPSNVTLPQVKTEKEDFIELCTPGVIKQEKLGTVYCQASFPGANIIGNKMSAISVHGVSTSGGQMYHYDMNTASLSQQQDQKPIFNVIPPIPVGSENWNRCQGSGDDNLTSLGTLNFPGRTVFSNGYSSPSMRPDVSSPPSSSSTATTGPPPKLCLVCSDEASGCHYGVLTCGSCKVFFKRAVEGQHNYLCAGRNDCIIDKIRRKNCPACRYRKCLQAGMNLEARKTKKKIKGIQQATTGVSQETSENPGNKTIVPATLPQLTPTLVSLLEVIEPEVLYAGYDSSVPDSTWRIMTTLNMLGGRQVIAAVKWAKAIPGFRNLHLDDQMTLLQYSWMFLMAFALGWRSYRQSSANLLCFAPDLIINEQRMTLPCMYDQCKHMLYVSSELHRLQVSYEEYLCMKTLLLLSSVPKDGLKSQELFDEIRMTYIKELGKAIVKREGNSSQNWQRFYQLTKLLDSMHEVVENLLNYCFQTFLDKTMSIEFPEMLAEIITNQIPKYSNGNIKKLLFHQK

[7] = target: eIF-2-alpha kinase GCN2 (Homo sapiens) (UniProt Q9P2K8); test: Selectivity interaction (ActivX KiNativ screen (ex vivo kinase selectivity in human PBMCs)) EUB0001619a EIF2AK4; format: cell-based; details: PBMC, at 1 µM
Sequence of eIF-2-alpha kinase GCN2 (Homo sapiens) (Q9P2K8 whole entry): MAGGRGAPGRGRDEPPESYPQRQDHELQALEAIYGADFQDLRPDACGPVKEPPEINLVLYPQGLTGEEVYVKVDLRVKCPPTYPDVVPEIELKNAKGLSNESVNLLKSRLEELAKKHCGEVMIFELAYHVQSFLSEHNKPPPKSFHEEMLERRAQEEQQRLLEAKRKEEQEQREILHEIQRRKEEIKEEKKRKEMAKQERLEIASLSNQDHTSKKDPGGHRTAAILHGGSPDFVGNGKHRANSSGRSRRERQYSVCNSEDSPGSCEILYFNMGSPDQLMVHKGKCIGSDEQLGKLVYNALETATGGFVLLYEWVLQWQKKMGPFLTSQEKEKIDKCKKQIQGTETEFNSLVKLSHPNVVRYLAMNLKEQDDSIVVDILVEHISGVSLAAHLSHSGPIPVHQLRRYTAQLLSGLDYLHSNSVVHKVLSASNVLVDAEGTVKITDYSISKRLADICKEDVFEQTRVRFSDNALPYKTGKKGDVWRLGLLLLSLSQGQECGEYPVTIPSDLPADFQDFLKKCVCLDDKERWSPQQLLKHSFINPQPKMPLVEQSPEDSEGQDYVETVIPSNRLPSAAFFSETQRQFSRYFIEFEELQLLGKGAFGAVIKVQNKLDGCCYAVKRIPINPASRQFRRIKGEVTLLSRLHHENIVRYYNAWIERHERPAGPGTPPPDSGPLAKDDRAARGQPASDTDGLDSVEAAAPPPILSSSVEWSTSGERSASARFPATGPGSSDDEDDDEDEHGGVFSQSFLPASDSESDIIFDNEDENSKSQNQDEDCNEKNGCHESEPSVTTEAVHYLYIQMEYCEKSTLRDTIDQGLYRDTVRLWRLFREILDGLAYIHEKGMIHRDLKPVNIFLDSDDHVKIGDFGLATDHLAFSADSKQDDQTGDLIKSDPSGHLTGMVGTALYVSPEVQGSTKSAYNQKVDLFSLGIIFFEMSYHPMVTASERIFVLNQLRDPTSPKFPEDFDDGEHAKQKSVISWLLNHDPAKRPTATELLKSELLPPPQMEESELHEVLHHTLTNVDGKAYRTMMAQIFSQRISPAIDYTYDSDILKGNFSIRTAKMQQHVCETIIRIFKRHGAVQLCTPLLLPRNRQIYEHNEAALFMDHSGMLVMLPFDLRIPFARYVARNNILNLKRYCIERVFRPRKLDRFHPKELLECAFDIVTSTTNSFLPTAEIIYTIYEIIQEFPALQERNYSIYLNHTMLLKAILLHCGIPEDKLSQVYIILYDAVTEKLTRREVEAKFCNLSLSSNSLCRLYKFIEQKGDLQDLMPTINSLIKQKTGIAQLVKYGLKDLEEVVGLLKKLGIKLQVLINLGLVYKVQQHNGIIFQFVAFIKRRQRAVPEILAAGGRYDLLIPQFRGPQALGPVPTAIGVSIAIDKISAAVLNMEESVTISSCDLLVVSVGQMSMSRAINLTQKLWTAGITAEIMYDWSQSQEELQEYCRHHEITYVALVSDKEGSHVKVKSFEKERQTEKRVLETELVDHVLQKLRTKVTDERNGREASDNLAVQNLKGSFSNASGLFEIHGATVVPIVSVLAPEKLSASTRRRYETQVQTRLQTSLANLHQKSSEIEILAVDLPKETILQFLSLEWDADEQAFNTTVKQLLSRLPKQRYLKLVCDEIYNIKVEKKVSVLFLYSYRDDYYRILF

[8] = target: Serine/threonine-protein kinase 26 (Homo sapiens, UniProt Q9P289); test: Selectivity interaction (SelectScreen profiling (Invitrogen)) EUB0000607a STK26; details: at 2 µM
[9] = target: T2, Dual serine/threonine and tyrosine protein kinase (Homo sapiens) (UniProt Q6XUX3); test: Selectivity interaction (KinomeScan (DiscoverX)) EUB0000618a DSTYK; details: at 10 µM
T2 sequence (whole entry): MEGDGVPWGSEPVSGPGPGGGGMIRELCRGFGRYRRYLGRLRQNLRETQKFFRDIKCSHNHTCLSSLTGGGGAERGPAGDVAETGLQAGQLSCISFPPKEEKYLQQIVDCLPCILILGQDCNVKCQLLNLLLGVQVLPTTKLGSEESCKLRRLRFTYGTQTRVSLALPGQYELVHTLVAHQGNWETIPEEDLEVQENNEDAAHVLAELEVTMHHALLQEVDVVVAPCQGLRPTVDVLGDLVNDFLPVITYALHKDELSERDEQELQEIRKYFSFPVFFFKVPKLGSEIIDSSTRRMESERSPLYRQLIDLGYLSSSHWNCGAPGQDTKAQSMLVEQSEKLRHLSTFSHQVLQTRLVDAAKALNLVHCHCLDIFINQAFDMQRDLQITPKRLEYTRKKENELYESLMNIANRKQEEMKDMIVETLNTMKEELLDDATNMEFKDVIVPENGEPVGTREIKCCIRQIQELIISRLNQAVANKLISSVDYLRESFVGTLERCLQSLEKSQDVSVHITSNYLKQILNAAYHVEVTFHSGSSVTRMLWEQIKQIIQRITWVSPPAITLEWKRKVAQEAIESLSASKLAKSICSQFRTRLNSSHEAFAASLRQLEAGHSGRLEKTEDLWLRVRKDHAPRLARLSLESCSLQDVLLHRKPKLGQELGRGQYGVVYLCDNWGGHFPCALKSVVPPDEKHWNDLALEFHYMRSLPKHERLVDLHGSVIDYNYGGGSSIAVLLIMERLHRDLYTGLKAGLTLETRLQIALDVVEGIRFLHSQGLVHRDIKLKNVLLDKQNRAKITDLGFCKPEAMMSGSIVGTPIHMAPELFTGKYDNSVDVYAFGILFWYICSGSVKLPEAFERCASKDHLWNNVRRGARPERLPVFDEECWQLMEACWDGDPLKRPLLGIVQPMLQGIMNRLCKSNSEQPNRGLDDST

[10] = target: Serine/threonine-protein kinase WNK2 (Homo sapiens) (UniProt Q9Y3S1); test: Selectivity interaction (ActivX KiNativ screen (kinase selectivity in THP-1 cell lysates)) EUB0000639a WNK2; format: subcellular; details: lysate, at 1 µM
[11] = target: High affinity nerve growth factor receptor (Homo sapiens, UniProt P04629); test: Selectivity interaction (KinomeScan (DiscoverX)) EUB0000655a NTRK1; details: at 10 µM
[12] = target: T3, Serine/threonine-protein kinase 17B (Homo sapiens) (UniProt O94768); details: at 10 µM
T3 sequence (whole entry): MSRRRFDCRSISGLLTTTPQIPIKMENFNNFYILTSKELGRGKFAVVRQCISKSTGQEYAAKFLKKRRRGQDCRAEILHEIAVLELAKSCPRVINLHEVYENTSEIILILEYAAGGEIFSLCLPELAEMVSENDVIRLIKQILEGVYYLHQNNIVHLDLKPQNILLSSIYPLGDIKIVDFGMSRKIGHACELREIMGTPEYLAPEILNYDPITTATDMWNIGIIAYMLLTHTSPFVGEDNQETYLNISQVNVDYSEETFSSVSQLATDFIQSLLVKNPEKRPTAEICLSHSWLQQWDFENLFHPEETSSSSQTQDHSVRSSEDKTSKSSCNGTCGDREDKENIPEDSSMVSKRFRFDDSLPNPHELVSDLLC

[13] = target: Mitogen-activated protein kinase kinase kinase 1 (Homo sapiens, UniProt Q13233); test: Selectivity interaction (KinomeScan (DiscoverX)) EUB0000092b MAP3K1; details: at 10 µM
[14] = target: Serine/threonine-protein kinase PRP4 homolog (Homo sapiens) (UniProt Q13523); test: Selectivity interaction (KinomeScan (DiscoverX)) EUB0000092b PRPF4B; details: at 10 µM

Sequence of Serine/threonine-protein kinase PRP4 homolog (Homo sapiens) (Q13523 whole entry): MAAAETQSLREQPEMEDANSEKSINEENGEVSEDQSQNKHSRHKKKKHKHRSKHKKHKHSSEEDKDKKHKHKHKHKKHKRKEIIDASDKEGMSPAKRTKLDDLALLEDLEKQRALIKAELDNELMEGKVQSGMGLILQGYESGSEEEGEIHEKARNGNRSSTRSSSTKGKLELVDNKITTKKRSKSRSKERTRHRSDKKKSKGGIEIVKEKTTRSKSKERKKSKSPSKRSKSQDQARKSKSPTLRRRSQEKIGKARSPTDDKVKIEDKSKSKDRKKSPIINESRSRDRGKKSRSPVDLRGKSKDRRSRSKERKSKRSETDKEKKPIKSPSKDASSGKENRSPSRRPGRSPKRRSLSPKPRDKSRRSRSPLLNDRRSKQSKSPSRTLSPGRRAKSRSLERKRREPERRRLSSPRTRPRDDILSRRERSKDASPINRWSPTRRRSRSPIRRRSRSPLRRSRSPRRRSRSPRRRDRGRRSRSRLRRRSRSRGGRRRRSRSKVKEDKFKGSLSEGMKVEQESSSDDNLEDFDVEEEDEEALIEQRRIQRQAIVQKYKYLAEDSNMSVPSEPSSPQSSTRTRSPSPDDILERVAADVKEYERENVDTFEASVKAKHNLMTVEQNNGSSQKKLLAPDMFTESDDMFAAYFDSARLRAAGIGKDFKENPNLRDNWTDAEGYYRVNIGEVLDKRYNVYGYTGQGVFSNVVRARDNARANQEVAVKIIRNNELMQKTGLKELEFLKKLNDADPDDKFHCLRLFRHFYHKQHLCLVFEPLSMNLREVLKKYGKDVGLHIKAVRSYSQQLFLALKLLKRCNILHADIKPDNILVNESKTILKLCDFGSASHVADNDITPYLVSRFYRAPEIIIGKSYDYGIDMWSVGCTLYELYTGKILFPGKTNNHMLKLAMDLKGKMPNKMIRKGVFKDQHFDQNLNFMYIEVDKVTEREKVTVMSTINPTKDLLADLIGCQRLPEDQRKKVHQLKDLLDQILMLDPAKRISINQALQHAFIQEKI

C=CC(=O)Nc1ccc(C(=O)Nc2[nH]nc3c2CN(C(=O)N[C@H](CN(C)C)c2ccccc2)C3(C)C)cc1
% of engagement [1]: -13.3%

COCC(=O)NC/C=C/c1ccc2ncnc(Nc3ccc(Oc4ccc(C)nc4)c(C)c3)c2c1 [CP-724714]
% of control [2]: 83%

C=CC(=O)Nc1cc(-n2c(=O)ccc3cnc4ccc(-c5ccc(NS(C)(=O)=O)cc5)cc4c32)ccc1C
% of control ([3]; at 1 µM): 100%
% of control ([3]; at 10 µM): 100%

Cc1cc(F)c(C(=O)Nc2cccc(-c3nncn3C(C)C)n2)cc1-n1cnc(C2CC2)c1
% of control [4]: 87%

Cc1cc([C@@H](C)Nc2ccccc2C(=O)O)c2nc(N3CCOCC3)cc(=O)n2c1 [AZD-6482]
% of control [5]: 100%

Cc1cc(C)cc([C@@H]2c3cc(C)ccc3NC(=O)CN2C(=O)c2ccc(Br)s2)c1
% of inhibition [6]: 15%

N#Cc1cccc(-c2c[nH]c3ncnc(N4CCOCC4)c23)c1
% of inhibition [7]: 22%

CNC(=O)Nc1ccc(-c2nc(N3CC4CCC(C3)O4)c3cnn(C4CCC5(CC4)OCCO5)c3n2)cc1
% of inhibition [8]: 7%

O[C@H]1CC[C@H](Nc2ncc3nc(Nc4c(F)cc(F)cc4F)n([C@H]4CCOC4)c3n2)CC1
% of control [9]: 91%

CC[C@@H]1[C@H](F)C(=O)N[C@@H]1COc1nccc2cc(C(N)=O)c(OC)cc12 [ZIMLOVISERTIB]
% of inhibition [10]: -7.7%

CN(C)CCOc1ccc(-c2nc(-c3ccncc3)c(-c3ccc4c(c3)CC/C4=N\O)[nH]2)cc1
% of control [11]: 90%

CCN(CC)CCCCNc1ncc2cc(-c3cc(OC)cc(OC)c3)c(NC(=O)NC(C)(C)C)nc2n1
% of control [12]: 100%

CCC(=O)N1CCN(c2ccc(-n3c(=O)ccc4cnc5ccc(-c6cnc7ccccc7c6)cc5c43)cc2C(F)(F)F)CC1
% of control [13]: 92%
% of control [14]: 100%

Reference: ChEMBL document CHEMBL5465560, “Selectivity Literature for EUbOPEN Chemogenomic Library” (2024)
